Reference: the supplement of paper PMC10307832

Tests used:
Experiment in all cases: relative viability (nuclei count vs DMSO), 5 days (fraction); higher = more cells survive
A-427 = tested on: A-427
Procedure, shortened: (§1)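 Five library-drug doses in √10 steps were combined with a fixed anchor-drug dose, or a single drug was given alone, by pin tool to lung cancer cell lines in 1536-well plates the day after seeding. Nuclei were stained and counted after 5 days. Relative viability is the nuclei count in treated wells over that in vehicle wells, taken as the median of duplicate plates.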

COR-L 105 = tested on: COR-L 105
Procedure, shortened: as §1

H3255 = tested on: H3255
Procedure, shortened: as §1

HCC-44 = tested on: HCC-44
Procedure, shortened: as §1

HCC-827 = tested on: HCC-827
Procedure, shortened: as §1

LCLC-103H = tested on: LCLC-103H
Procedure, shortened: as §1

LOU-NH91 = tested on: LOU-NH91
Procedure, shortened: as §1

LXF-289 = tested on: LXF-289
Procedure, shortened: as §1

NCI-H1792 = tested on: NCI-H1792
Procedure, shortened: as §1

NCI-H1915 = tested on: NCI-H1915
Procedure, shortened: as §1

NCI-H1944 = tested on: NCI-H1944
Procedure, shortened: as §1

NCI-H1975 = tested on: NCI-H1975
Procedure, shortened: as §1

NCI-H1993 = tested on: NCI-H1993
Procedure, shortened: as §1

NCI-H2023 = tested on: NCI-H2023
Procedure, shortened: as §1

NCI-H2087 = tested on: NCI-H2087
Procedure, shortened: as §1

NCI-H2170 = tested on: NCI-H2170
Procedure, shortened: as §1

NCI-H358 = tested on: NCI-H358
Procedure, shortened: as §1

NCI-H520 = tested on: NCI-H520
Procedure, shortened: as §1

SK-MES-1 = tested on: SK-MES-1
Procedure, shortened: as §1

SW 1573 = tested on: SW 1573
Procedure, shortened: as §1

## CN1CCN(CCOc2cc(OC3CCOCC3)c3c(Nc4c(Cl)ccc5c4OCO5)ncnc3c2)CC1 [Saracatinib] + C[C@@H](Oc1cc(-c2cnn(C3CCNCC3)c2)cnc1N)c1c(Cl)ccc(F)c1Cl [Crizotinib] (partner 1 µM)
A-427; first compound 0.02 µM
  relative viability: 1.04
A-427; first compound 0.2 µM
  relative viability: 0.604
A-427; first compound 0.6325 µM
  relative viability: 0.837
A-427; first compound 2 µM
  relative viability: 0.926
COR-L 105; first compound 0.02 µM
  relative viability: 0.881
COR-L 105; first compound 0.2 µM
  relative viability: 0.763
COR-L 105; first compound 0.6325 µM
  relative viability: 0.459
COR-L 105; first compound 2 µM
  relative viability: 0.252
H3255; first compound 0.02 µM
  relative viability: 0.865
H3255; first compound 0.2 µM
  relative viability: 0.952
H3255; first compound 0.6325 µM
  relative viability: 0.664
H3255; first compound 2 µM
  relative viability: 0.269
HCC-44; first compound 0.02 µM
  relative viability: 0.859
HCC-44; first compound 0.2 µM
  relative viability: 0.738
HCC-44; first compound 0.6325 µM
  relative viability: 0.952
HCC-44; first compound 2 µM
  relative viability: 1.01
HCC-827; first compound 0.02 µM
  relative viability: 0.943
HCC-827; first compound 0.2 µM
  relative viability: 0.452
HCC-827; first compound 0.6325 µM
  relative viability: 0.247
HCC-827; first compound 2 µM
  relative viability: 0.193
LCLC-103H; first compound 0.02 µM
  relative viability: 1.11
LCLC-103H; first compound 0.2 µM
  relative viability: 0.817
LCLC-103H; first compound 0.6325 µM
  relative viability: 1.13
LCLC-103H; first compound 2 µM
  relative viability: 0.976
LOU-NH91; first compound 0.02 µM
  relative viability: 0.692
LOU-NH91; first compound 0.2 µM
  relative viability: 0.57
LOU-NH91; first compound 0.6325 µM
  relative viability: 0.542
LOU-NH91; first compound 2 µM
  relative viability: 0.458
LXF-289; first compound 0.02 µM
  relative viability: 0.845
LXF-289; first compound 0.2 µM
  relative viability: 0.775
LXF-289; first compound 0.6325 µM
  relative viability: 0.847
LXF-289; first compound 2 µM
  relative viability: 0.892
NCI-H1792; first compound 0.02 µM
  relative viability: 0.94
NCI-H1792; first compound 0.2 µM
  relative viability: 0.922
NCI-H1792; first compound 0.6325 µM
  relative viability: 1.15
NCI-H1792; first compound 2 µM
  relative viability: 0.684
NCI-H1915; first compound 0.02 µM
  relative viability: 0.913
NCI-H1915; first compound 0.2 µM
  relative viability: 0.846
NCI-H1915; first compound 0.6325 µM
  relative viability: 0.916
NCI-H1915; first compound 2 µM
  relative viability: 0.875
NCI-H1944; first compound 0.02 µM
  relative viability: 1.11
NCI-H1944; first compound 0.6325 µM
  relative viability: 1.09
NCI-H1944; first compound 2 µM
  relative viability: 0.67
NCI-H1975; first compound 0.02 µM
  relative viability: 1.02
NCI-H1975; first compound 0.6325 µM
  relative viability: 0.823
NCI-H1975; first compound 2 µM
  relative viability: 0.515
NCI-H1993; first compound 0.02 µM
  relative viability: 0.832
NCI-H1993; first compound 0.2 µM
  relative viability: 0.594
NCI-H1993; first compound 2 µM
  relative viability: 0.589
NCI-H2023; first compound 0.02 µM
  relative viability: 0.769
NCI-H2023; first compound 0.2 µM
  relative viability: 0.428
NCI-H2023; first compound 0.6325 µM
  relative viability: 0.391
NCI-H2023; first compound 2 µM
  relative viability: 0.356
NCI-H2087; first compound 0.02 µM
  relative viability: 0.993
NCI-H2087; first compound 0.2 µM
  relative viability: 0.697
NCI-H2087; first compound 0.6325 µM
  relative viability: 1.07
NCI-H2087; first compound 2 µM
  relative viability: 1.02
NCI-H2170; first compound 0.02 µM
  relative viability: 1.13
NCI-H2170; first compound 0.2 µM
  relative viability: 1.24
NCI-H2170; first compound 0.6325 µM
  relative viability: 1.13
NCI-H2170; first compound 2 µM
  relative viability: 0.649
NCI-H358; first compound 0.02 µM
  relative viability: 0.54
NCI-H358; first compound 0.2 µM
  relative viability: 0.611
NCI-H358; first compound 0.6325 µM
  relative viability: 0.376
NCI-H358; first compound 2 µM
  relative viability: 0.251
NCI-H520; first compound 0.02 µM
  relative viability: 0.74
NCI-H520; first compound 0.2 µM
  relative viability: 0.732
NCI-H520; first compound 0.6325 µM
  relative viability: 0.531
NCI-H520; first compound 2 µM
  relative viability: 0.37
SK-MES-1; first compound 0.02 µM
  relative viability: 1.05
SK-MES-1; first compound 0.2 µM
  relative viability: 0.858
SK-MES-1; first compound 0.6325 µM
  relative viability: 0.825
SK-MES-1; first compound 2 µM
  relative viability: 0.517
SW 1573; first compound 0.02 µM
  relative viability: 0.744
SW 1573; first compound 0.2 µM
  relative viability: 0.801
SW 1573; first compound 0.6325 µM
  relative viability: 0.903
SW 1573; first compound 2 µM
  relative viability: 0.591
